pEC50, pIC50: −log10 of the molar value. Like-named read-outs stand apart in the source and are kept apart here.
Legend:
PI3Kβ = experiment: PI3 Kinase HTRF assay, PI3Kβ; assay type: biochemical, human; conditions: 10 μM PIP2, 10 μM ATP, read-out: PI3K β IC50
Source text: A PI3-Kinase HTRF® assay kit (cat No. 33-016) purchased from Millipore Corporation was used to screen compounds provided herein. This assay used specific, high affinity binding of the GRP1 pleckstrin homology (PH) domain to PIP3, the product of a Class 1A or 1B PI3 Kinase acting on its physiological substrate PIP2. During the detection phase of the assay, a complex was generated between the GST-tagged PH domain and biotinylated short chain PIP3. The biotinylated PIP3 and the GST-tagged PH domain recruited fluorophores (Streptavidin-Allophycocyanin and Europium-labeled anti-GST respectively) to form the fluorescence resonance energy transfer (FRET) architecture, generating a stable time-resolved FRET signal. The FRET complex was disrupted in a competitive manner by non-biotinylated PIP3, a product formed in the PI3 Kinase assay.
PI3 Kinase α, β, γ and δ activity was assayed using the PI3 Kinase HTRF® assay kit (catalogue No. 33-016) purchased from Millipore Corporation. […] Purified recombinant PI3K enzyme was used to catalyze the phosphorylation of phosphatidylinositol 4,5-bisphosphate (PIP2 at 10 μM) to phosphatidylinositol 3,4,5-trisphosphate (PIP3) in the presence of 10 μM ATP. The assay was carried out in 384-well format and detected using a Perkin Elmer EnVision Xcite Multilabel Reader. Emission ratios were converted into percent inhibitions and imported into GraphPad Prism software. […] IC50 values were determined using a nonlinear regression model available in GraphPad Prism 5. […]

Balb/c splenic B cells = experiment: B cell activation and proliferation assay (Alamar Blue); assay type: cell-based; conditions: Mus musculus
Description: The ability of one or more subject compounds to inhibit B cell activation and proliferation is determined according to standard procedures known in the art. For example, an in vitro cellular proliferation assay is established that measures the metabolic activity of live cells. The assay is performed in a 96 well microtiter plate using Alamar Blue reduction. Balb/c splenic B cells are purified over a Ficoll-Paque™ PLUS gradient followed by magnetic cell separation using a MACS B cell Isolation Kit (Miletenyi). Cells are plated in 90 μl at 50,000 cells/well in B Cell Media (RPMI+10% FBS+Penn/Strep+50 μM bME+5 mM HEPES). A compound provided herein is diluted in B Cell Media and added in a 10 μl volume. Plates are incubated for 30 min at 37° C. and 5% CO2 (0.2% DMSO final concentration). A 50 μl B cell stimulation cocktail is then added containing either 10 μg/ml LPS or 5 μg/ml F(ab′)2 Donkey anti-mouse […] plus 2 ng/ml recombinant mouse IL4 in B Cell Media. Plates are incubated for 72 hours at 37° C. and 5% CO2. A volume of 15 μL of Alamar Blue reagent is added to each well and plates are incubated for 5 hours at 37° C. and 5% CO2. Alamar Blue fluoresce is read at 560Ex/590Em, and IC50 or EC50 values are calculated using GraphPad Prism 5.

[1] = 'Greater than 10 μM' and 'Greater than 1 μM to 10 μM'

Sequence of PI3Kβ (Q8BTI9 whole entry, the tested form may be a part): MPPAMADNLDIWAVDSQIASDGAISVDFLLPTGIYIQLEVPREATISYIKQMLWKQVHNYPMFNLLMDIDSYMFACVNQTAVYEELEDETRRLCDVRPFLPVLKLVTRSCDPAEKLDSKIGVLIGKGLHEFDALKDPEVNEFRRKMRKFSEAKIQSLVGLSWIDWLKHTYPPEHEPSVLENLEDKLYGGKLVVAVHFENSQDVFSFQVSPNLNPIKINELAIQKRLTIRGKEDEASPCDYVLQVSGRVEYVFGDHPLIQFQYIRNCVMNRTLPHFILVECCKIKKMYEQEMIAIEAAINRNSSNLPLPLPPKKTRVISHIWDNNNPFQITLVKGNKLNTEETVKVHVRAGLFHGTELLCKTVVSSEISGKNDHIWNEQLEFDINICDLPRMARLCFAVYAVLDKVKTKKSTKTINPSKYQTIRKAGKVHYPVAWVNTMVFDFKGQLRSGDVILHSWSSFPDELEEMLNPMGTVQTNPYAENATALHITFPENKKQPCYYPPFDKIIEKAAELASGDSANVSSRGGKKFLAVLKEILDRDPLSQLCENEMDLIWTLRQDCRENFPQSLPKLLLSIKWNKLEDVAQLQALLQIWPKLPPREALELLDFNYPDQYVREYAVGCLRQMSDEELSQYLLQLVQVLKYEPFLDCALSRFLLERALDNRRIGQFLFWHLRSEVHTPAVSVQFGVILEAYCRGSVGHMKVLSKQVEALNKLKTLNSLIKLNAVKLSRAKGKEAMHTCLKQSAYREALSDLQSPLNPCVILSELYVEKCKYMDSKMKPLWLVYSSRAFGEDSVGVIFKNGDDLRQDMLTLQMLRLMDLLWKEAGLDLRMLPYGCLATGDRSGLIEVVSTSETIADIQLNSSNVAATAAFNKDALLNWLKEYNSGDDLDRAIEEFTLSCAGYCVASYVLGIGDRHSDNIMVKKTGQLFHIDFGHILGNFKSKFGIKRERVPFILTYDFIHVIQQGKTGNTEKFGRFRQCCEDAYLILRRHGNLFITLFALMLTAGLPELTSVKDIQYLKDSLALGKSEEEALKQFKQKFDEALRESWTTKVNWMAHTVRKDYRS

Structure (SMILES)	pIC50 (PI3Kβ; [1])	pEC50 (Balb/c splenic B cells; 'Less than 100 nM')	further results
COc1nc(N[C@@H](C)c2cc3cccc(Cl)c3c(=O)n2-c2ccccc2)c2ncccc2n1 [Compound I-71]	< 5.00	–	–
COc1ncc(-c2cccc3cc([C@H](C)Nc4ncnc5cccnc45)n(-c4ccccc4)c(=O)c23)cn1 [Compound I-42]	< 5.00	> 7.00	–
C[C@H](Nc1nc(O)nc2cccnc12)c1cc2cccc(C(F)(F)F)c2c(=O)n1-c1cccc(F)c1 [III-47]	< 5.00	–	–
COc1ncc(-c2cccc3cc([C@H](C)Nc4cc(N)nc5ccnn45)n(-c4ccccc4)c(=O)c23)cn1 [II-50]	< 5.00	> 7.00	–
COc1ncc(-c2cccc3cc([C@H](C)Nc4nc(N)nc5cccnc45)n(-c4ccccc4)c(=O)c23)cn1 [Compound I-57]	< 5.00	> 7.00	–
C[C@H](Nc1nc(N)nc2cccnc12)c1cc2cccc(-c3cnn(C)c3)c2c(=O)n1C1CC1 [Compound I-40]	5.00 to 6.00	> 7.00	–
C[C@H](Nc1ncnc2cccnc12)c1cc2cccc(Cl)c2c(=O)n1C1CC1 [Compound I-23]	–	> 7.00	pIC50 (PI3Kβ; 'Less than 100 nM'): > 7.00
COc1ncc(-c2cccc3cc([C@H](C)Nc4nc(N)nc5cccnc45)n(-c4cccc(F)c4)c(=O)c23)cn1 [Compound I-78]	< 5.00	> 7.00	–
CNc1nc(N[C@@H](C)c2cc3cccc(-c4cnc(OC)nc4)c3c(=O)n2-c2ccccc2)c2ncccc2n1 [Compound I-97]	< 5.00	> 7.00	–
C[C@H](Nc1nc(Cl)nc2cccnc12)c1cc2cccc(-c3cnn(C)c3)c2c(=O)n1-c1cccc(F)c1 [Compound I-37]	< 5.00	–	–
Cc1cncc(-c2cccc3cc([C@H](C)Nc4nc(N)nc5cccnc45)n(-c4ccccc4)c(=O)c23)c1 [Compound I-75]	5.00 to 6.00	> 7.00	–
COc1cncc(-c2cccc3cc([C@H](C)Nc4nc(N)nc5cccnc45)n(-c4ccccc4)c(=O)c23)c1 [Compound I-58]	5.00 to 6.00	> 7.00	–
C[C@H](Nc1nc(N)nc2cccnc12)c1cc2cccc(-c3cnc4[nH]ccc4c3)c2c(=O)n1-c1ccccc1 [Compound I-83]	–	> 7.00	–
C[C@H](Nc1nc(Cl)nc2cccnc12)c1cc2cccc(-c3cnn(C)c3)c2c(=O)n1-c1ccccc1 [Compound I-35]	< 5.00	–	–
C[C@H](Nc1ncnc2scnc12)c1cc2cccc(C(F)(F)F)c2c(=O)n1-c1ccccc1 [III-5]	–	> 7.00	pIC50 (PI3Kβ; 'Less than 100 nM'): > 7.00
C[C@H](Nc1ncc(C(F)(F)F)c(N)n1)c1cc2cccc(Cl)c2c(CCN2CCOCC2)n1 [IV-10]	< 5.00	–	–
COc1cncc(-c2cccc3cc([C@H](C)Nc4ncnc5cccnc45)n(-c4ccccc4)c(=O)c23)c1 [Compound I-45]	< 5.00	–	–
C[C@H](Nc1nc(Cl)ns1)c1cc2cccc(Cl)c2c(=O)n1-c1ccccc1 [IV-27]	< 5.00	–	–
COc1ncc(-c2cccc3cc([C@H](C)Nc4ccnc5ccnn45)n(-c4ccccc4)c(=O)c23)cn1 [II-47]	< 5.00	–	–
Cc1ccnc2cc(C(C)Nc3ncnc4cccnc34)n(-c3ccccc3)c(=O)c12 (centres unmarked) [Compound I-65]	5.00 to 6.00	–	–
C[C@H](Nc1ncnc2ccnn12)c1cc2cccc(C(F)(F)F)c2c(=O)n1-c1ccccc1 [III-21]	5.00 to 6.00	–	–
C[C@@H](c1cc2cccc(Cl)c2c(=O)n1-c1ccccc1)n1c(=O)[nH]c2cnc(N)nc21 [IV-26]	< 5.00	–	–
C[C@H](Nc1ncnc(N)c1C#N)c1cc2cccc(C(F)(F)F)c2c(=O)n1-c1ccccc1 [III-42]	< 5.00	> 7.00	–
C[C@H](Nc1ncnc2cccnc12)c1cc2cccc(Cl)c2c(=O)n1CCN1CCCC1 [Compound I-33]	–	> 7.00	–
Cc1cc(-c2cccc3cc([C@H](C)Nc4ncnc5cccnc45)n(-c4ccccc4)c(=O)c23)ccn1 [Compound I-76]	5.00 to 6.00	> 7.00	–
C[C@H](Nc1ncnc2[nH]nc(C#N)c12)c1cc2cccc(Cl)c2c(=O)n1-c1ccccc1 [IV-11]	5.00 to 6.00	> 7.00	–
C[C@H](Nc1ncnc2cnccc12)c1cc2cccc(Cl)c2c(=O)n1-c1ccccc1 [IV-5]	< 5.00	–	–
C[C@H](Nc1nc(O)nc2[nH]cnc12)c1cc2cccc(C(F)(F)F)c2c(=O)n1-c1cccc(F)c1 [III-48]	< 5.00	–	–

Structure (SMILES)	pIC50 (PI3Kβ; [1])	pEC50 (Balb/c splenic B cells; 'Less than 100 nM')	further results
C[C@H](Nc1nc(N)ncc1C(F)(F)F)c1cc2cccc(C(F)(F)F)c2c(=O)n1-c1ccccc1 [III-32]	5.00 to 6.00	–	–
C[C@H](NCc1cccnc1N)c1cc2cccc(Cl)c2c(=O)n1-c1ccccc1 [IV-8]	< 5.00	–	–
C[C@H](Nc1nc(N)ncc1C(F)(F)F)c1cc2cccc(C(F)(F)F)c2c(=O)n1-c1cccc(F)c1 [III-46]	5.00 to 6.00	–	pEC50 (Balb/c splenic B cells; 1 μM to 100 nM): 6.00 to 7.00
Cc1ncc(-c2cccc3cc([C@H](C)Nc4ncnc5cccnc45)n(-c4ccccc4)c(=O)c23)cn1 [Compound I-41]	< 5.00	> 7.00	–
C[C@H](Nc1ccnn2ccnc12)c1cc2cccc(Cl)c2c(=O)n1-c1ccccc1 [II-10]	–	> 7.00	pIC50 (PI3Kβ; 'Less than 100 nM'): > 7.00
CNc1nc(N[C@@H](C)c2cc3cccc(-c4cnc(C)nc4)c3c(=O)n2-c2ccccc2)c2ncccc2n1 [Compound I-98]	< 5.00	–	pEC50 (Balb/c splenic B cells; 1 μM to 100 nM): 6.00 to 7.00
C[C@H](Nc1ccnc2cccnc12)c1cc2cccc(C(F)(F)F)c2c(=O)n1-c1ccccc1 [III-31]	5.00 to 6.00	> 7.00	–
C[C@H](Nc1ccn2nccc2n1)c1cc2cccc(Cl)c2c(=O)n1-c1ccccc1 [IV-6]	< 5.00	–	–
C[C@H](Nc1cc(Cl)nn2ccnc12)c1cc2cccc(-c3cnn(C)c3)c2c(=O)n1-c1cccc(F)c1 [II-16]	< 5.00	–	–
Cc1cccc2cc([C@H](C)Nc3nc(N)nc4cccnc34)n(-c3cccc(F)c3)c(=O)c12 [Compound I-85]	5.00 to 6.00	> 7.00	–
C[C@H](Nc1ncnc2cccnc12)c1cc2cccc(C(=O)O)c2c(=O)n1-c1ccccc1 [Compound I-62]	< 5.00	–	–
Cc1ncc(-c2cccc3cc([C@H](C)Nc4nc(N)nc5cccnc45)n(-c4ccccc4)c(=O)c23)s1 [Compound I-94]	5.00 to 6.00	–	–
COc1ncc(-c2cccc3cc([C@H](C)Nc4nc(O)nc5cccnc45)n(-c4ccccc4)c(=O)c23)cn1 [Compound I-77]	< 5.00	–	–
C[C@H](Nc1nc(Cl)nc2cccnc12)c1cc2cccc(-c3cnn(C)c3)c2c(=O)n1C1CC1 [Compound I-39]	< 5.00	–	–
C[C@H](Nc1ccnc2ccnn12)c1cc2scc(-c3cnn(C)c3)c2c(=O)n1-c1ccccc1 [II-21]	< 5.00	–	–
COc1ccc(CNc2nc(N[C@@H](C)c3cc4cccc(-c5cnc(OC)nc5)c4c(=O)n3-c3ccccc3)c3ncccc3n2)cc1 [Compound I-93]	5.00 to 6.00	–	–
C[C@H](Nc1nccc2nccn12)c1cc2cccc(Cl)c2c(=O)n1-c1ccccc1 [IV-4]	< 5.00	–	–
COc1ncc(-c2cccc3cc([C@H](C)Nc4nc(OC)nc5cccnc45)n(-c4ccccc4)c(=O)c23)cn1 [Compound I-72]	< 5.00	–	–
C[C@H](Nc1cc(N)ncc1C(N)=O)c1cc2cccc(Cl)c2c(=O)n1-c1ccccc1 [IV-24]	–	–	pIC50 (PI3Kβ; 'Less than 100 nM'): > 7.00
C[C@H](Nc1ncnc2cccnc12)c1cc2cccc(Cl)c2c(=O)n1-c1cccc(F)c1 [Compound I-20]	–	> 7.00	–
C[C@H](Nc1cc(Cl)ncc1C#N)c1cc2cccc(Cl)c2c(=O)n1-c1ccccc1 [IV-23]	< 5.00	–	–
C[C@H](Nc1ccnn2ccnc12)c1cc2scc(-c3cnn(C)c3)c2c(=O)n1-c1ccccc1 [II-23]	< 5.00	–	–
C[C@H](Nc1nc(N)nc2cccnc12)c1cc2cccc(Cl)c2c(=O)n1-c1ccccc1 [Compound I-92]	–	–	pIC50 (PI3Kβ; 'Less than 100 nM'): > 7.00
C[C@H](Nc1cc(Cl)ncc1C(N)=O)c1cc2cccc(Cl)c2c(=O)n1-c1ccccc1 [IV-21]	< 5.00	–	–
C[C@H](Nc1ncnc2cccnc12)c1cc2ccc(F)c(Cl)c2c(=O)n1-c1ccccc1 [Compound I-16]	–	> 7.00	–
CCOC(=O)c1cnc(N[C@@H](C)c2cc3cccc(-c4ccnc(OC)c4)c3c(=O)n2-c2ccccc2)nc1N [IV-25]	< 5.00	–	–
C[C@H](Nc1nc(Cl)nc2scnc12)c1cc2cccc(C(F)(F)F)c2c(=O)n1-c1ccccc1 [III-24]	5.00 to 6.00	–	–

From patent US8969363B2, “Heterocyclic compounds and uses thereof” (Infinity Pharmaceuticals, Inc., priority 2011, dated 2015)
